Laboratory results: patent US20160206550A1, “STROMAL DELLS DERIVED CONDITIONED MEDIUM, METHOD OF OBTAINING SAID CONDITIONED MEDIUM COMPOSITIONS, FORMULATIONS AND APPLICATIONS THEREOF” (STEMPEUTICS RESEARCH PVT. LTD., priority 2013, published 2016)

Test system: HFF-1 cells
Assay: Cytoprotective/viability restorative effect against tbOH damage (MTT)
Type: cell-based, human
Conditions: 100 μM, positive control in serum free medium
Procedure: Cytoprotective viability restorative effects of 10×CM generated by process 2 against oxidative damage in dermal fibroblast cells upon treatment with 300 μM of tert-butyl hydroperoxide (tbOH) for 2 h and post treatment of damaged fibroblast with 10×CM for 48 h is evaluated by MTT assay. Treatment of HFF-1 cells with 300 μM of tbOH leads to 35% decrease in cellular viability in SFM treated as compared to untreated cells. The cytoprotection obtained with 10×CM is 11%, 18% and 12% higher at the doses of 5%, 10% and 50% respectively as compared to respective 10× control medium treated cells against tbOH damage (FIG. 10). In this assay, serum free medium with ascorbic acid (SFM+AA) is used as a positive control. Treatment of HFF-1 cells with 100 μM ascorbic acid (AA) also leads to 12% cytoprotection against tbOH damage. […] 10×CM has shown a trend in the ability to restore the viability of oxidative stressed fibroblast cells at the concentrations 5%, 10% and 50%. Maximum activity is observed at 10% 10×CM.

Compound: O=C1O[C@H]([C@@H](O)CO)C(O)=C1O [ascorbic acid]
- cytoprotection against tbOH damage: 12%
